The values that follow come from patent US8796328B2, “TRPV1 antagonists” (AbbVie Inc., priority 2012, dated 2014).

For test [1], the target named is T1, human TRPV1 receptor (hTRPV1) (Homo sapiens (Human), UniProt Q8NER1). Nature of the test: Acid activation assay (pH 5.0, FLIPR intracellular Ca2+). Format: cell-based. The following applies: 37.5 μM compound, percentage of the maximal pH 5.0-induced response remaining; for remaining activity at 37.5 µM: read-out: hTRPV1 H+ (max % remain). The procedure: Dulbecco's modified Eagle's medium (DMEM) with 4.5 mg/mL D-glucose, fetal bovine serum, L-glutamine, and 2-morpholinoethanesulfonic acid (MES) were purchased from Sigma-Aldrich Co. (St. Louis, Mo.). Dulbecco's phosphate-buffered saline (DPBS) with Ca^2+, Mg^2+, and 1 mg/mL D-glucose (pH 7.4), Geneticin®, 0.25% trypsin-1 mM EDTA, and penicillin-streptomycin were purchased from Invitrogen Corp. (Carlsbad, Calif.). The FLIPR® Calcium 4 assay kit was purchased from Molecular Devices (Sunnyvale, Calif.).
(§1) The cDNAs for the human TRPV1 receptor (hTRPV1) were isolated by reverse transcriptase-polymerase chain reaction (RT-PCR) from human small intestine poly A+ RNA supplied by Clontech (Palo Alto, Calif.) using primers designed surrounding the initiation and termination codons identical to the published sequences (Hayes et al. Pain 2000, 88, 205-215). The resulting cDNA PCR products were subcloned into pCIneo mammalian expression vector (Promega) and fully sequenced using fluorescent dye-terminator reagents (Prism, Perkin-Elmer Applied Biosystems Division) and a Perkin-Elmer Applied Biosystems Model 373 DNA sequencer or Model 310 genetic analyzer. Expression plasmids encoding the hTRPV1 cDNA were transfected individually into 1321N1 human astrocytoma cells using Lipofectamine®. Forty-eight hours after transfection, the neomycin-resistant cells were selected with growth medium containing 800 μg/mL Geneticin (Gibco BRL). Surviving individual colonies were isolated and screened for TRPV1 receptor activity. Cells expressing recombinant homomeric TRPV1 receptors were maintained at 37° C. in DMEM containing 4 mM L-glutamine, 300 μg/mL G418 (Cal-biochem) and 10% fetal bovine serum under a humidified 5% CO2 atmosphere.
The functional activity of compounds at the TRPV1 receptor was determined by measurement of intracellular Ca^2+ levels ([Ca^2+]i) using the Fluorescence Imaging Plate Reader (FLIPR)^TETRA®. All compounds were tested over a 12-point one-half-log concentration range. Compound stocks, 10 mM, were prepared in DMSO, and diluted serially across a 384-well plate using a Bravo BenchCel workstation (Agilent Technologies, Santa Clara, Calif.).
On the day of the experiment growth medium was removed, and the no-wash FLIPR®Calcium-4 dye (λEX=470-495 nm, λEM=515-575 nm) was added to each well using the Multidrop® dispenser. Cells were incubated for 90-120 minutes in the dark at 25° C. Test compounds were dissolved in DMSO, and plates were prepared using an Agilent Bravo workstation (Agilent Technologies Inc., Santa Clara, Calif.). Compounds were added to the cells 3 minutes prior to the addition of a pH 5.0 solution. Reagents were delivered at a rate of 40 μL/sec, and the final assay volume was 80 μL. Acidic pH solutions were prepared by titration of DPBS/MES with 1 N HCl. The intensity of the fluorescence was captured and digitally transferred to an interfaced PC.

The target in test [2] is T1, human TRPV1 receptor (hTRPV1). Nature of the test: Capsaicin activation assay (FLIPR intracellular Ca2+). Format: cell-based. Particulars: inhibition of capsaicin-induced intracellular Ca2+ increase; compounds added 3 minutes prior to capsaicin; read-out: hTRPV1 cap. IC50. The procedure:
Dulbecco's modified Eagle medium (D-MEM) (with 4.5 mg/mL glucose) and fetal bovine serum were obtained from Hyclone Laboratories, Inc. (Logan, Utah). Dulbecco's phosphate-buffered saline (D-PBS) (with 1 mg/mL glucose and 3.6 mg/l Na pyruvate, without phenol red), L-glutamine, hygromycin B, and Lipofectamine® were obtained from Life Technologies (Grand Island, N.Y.). G418 sulfate was obtained from Calbiochem-Novabiochem Corp. (San Diego, Calif.). Capsaicin (8-methyl-N-vanillyl-6-nonenamide) was obtained from Sigma-Aldrich, Co. (St. Louis, Mo.). Fluo-4 AM (N-[4-[6-[(acetyloxy)methoxy]-2,7-difluoro-3-oxo-3H-xanthen-9-yl]-2-[2-[2-[bis[2-[(acetyloxy)methoxy]-2-oxyethyl]amino]-5-methylphenoxy]ethoxy]phenyl]-N-[2-[(acetyloxy)methoxy]-2-oxyethyl]-glycine, (acetyloxy)methyl ester) was purchased from Molecular Probes (Eugene, Oreg.).
as §1, with “D-MEM” for “DMEM”
The functional activity of compounds at the TRPV1 receptor was determined by measurement of intracellular Ca^2+ levels ([Ca^2]i) using the Fluorescence Imaging Plate Reader (FLIPR)^TETRA®. All compounds were tested over a 12-point one-third-log concentration range. Compound stocks, 10 mM, were prepared in DMSO, and diluted serially across a 384-well plate using a Bravo BenchCel workstation (Agilent Technologies, Santa Clara, Calif.). A stock concentration of capsaicin (10 mM) was made in DMSO, and diluted in D-PBS to a final concentration of 200 nM (4×). On the day prior to the experiment, recombinant HEK293 cells that stably express either human or rat TRPV1 (hTRPV1-3) were removed from tissue culture flasks and plated in growth medium into black-walled clear-bottom 384-well Biocoat™ poly-D-lysine assay plates (BD Biosciences, Bedford, Mass.) using a Multidrop® dispenser (ThermoScientific, Waltham, Mass.). On the day of the experiment, growth medium was removed, and the no-wash FLIPR® Calcium-4 dye (λEX=470-495 nm, λEM=515-575 nm; Molecular Devices, Sunnyvale, Calif.) was added to each well using the Multidrop® dispenser. Cells were incubated for 90-120 minutes in the dark at room temperature. Test compounds were added to the cells 3 minutes prior to the addition of 200 nM capsaicin (4×), and the final assay volume was 80 μL. Fluorescence readings were made at 1 to 5 second intervals over the course of the experimental run. The peak increase in relative fluorescence units (minus baseline) was calculated, and expressed as a percentage of the 50 nM capsaicin (control) response. Curve-fits of the data were solved using a four-parameter logistic Hill equation in GraphPad Prism® (GraphPad Software, Inc., San Diego, Calif.), and IC50 values (concentration of the test compounds that inhibits 50% of the intracellular Ca^2+ concentration increase induced by capasin) were calculated.

Molecules are shown by their SMILES.

T1 sequence (Q8NER1 whole entry): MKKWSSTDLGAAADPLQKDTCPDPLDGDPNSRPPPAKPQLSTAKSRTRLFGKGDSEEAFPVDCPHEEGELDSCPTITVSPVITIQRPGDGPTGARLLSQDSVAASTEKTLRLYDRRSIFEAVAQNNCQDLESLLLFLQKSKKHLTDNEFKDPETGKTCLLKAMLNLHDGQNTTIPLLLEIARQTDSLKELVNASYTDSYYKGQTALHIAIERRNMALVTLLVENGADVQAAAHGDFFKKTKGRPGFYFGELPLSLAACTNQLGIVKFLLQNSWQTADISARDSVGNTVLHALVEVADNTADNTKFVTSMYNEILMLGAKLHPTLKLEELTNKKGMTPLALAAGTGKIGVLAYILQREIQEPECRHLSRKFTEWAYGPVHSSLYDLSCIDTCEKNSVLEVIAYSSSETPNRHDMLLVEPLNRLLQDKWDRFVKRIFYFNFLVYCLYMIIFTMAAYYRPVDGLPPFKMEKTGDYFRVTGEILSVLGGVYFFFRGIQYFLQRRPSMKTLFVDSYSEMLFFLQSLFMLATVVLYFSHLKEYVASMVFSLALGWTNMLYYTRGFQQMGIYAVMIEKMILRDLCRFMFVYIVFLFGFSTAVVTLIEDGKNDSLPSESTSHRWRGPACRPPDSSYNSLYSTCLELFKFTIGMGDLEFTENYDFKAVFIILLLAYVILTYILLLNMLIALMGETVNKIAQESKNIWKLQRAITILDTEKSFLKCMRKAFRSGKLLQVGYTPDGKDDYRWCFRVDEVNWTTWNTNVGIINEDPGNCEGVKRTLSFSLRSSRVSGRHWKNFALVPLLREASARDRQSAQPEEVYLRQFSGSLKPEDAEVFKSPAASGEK

`CS(=O)(=O)Nc1ccc(CNC(=O)N[C@@H]2CCOc3cc(C(F)(F)F)ccc32)cc1F` [Example 32, N-{2-fluoro-4-[({[(4R)-7-(trifluoromethyl)-3,4-dihydro-2H-chromen-4-yl]carbamoyl}amino)methyl]phenyl}methanesulfonamide]: in test [1], the remaining activity at 37.5 µM is 88%. Further, the IC50 in test [2] amounted to 913 nM.

Consider `CS(=O)(=O)Nc1ccc(CNC(=O)N[C@H]2CC3(CCC3)Oc3ccc(F)cc32)cc1F` [Example 33, N-{2-fluoro-4-[({[(45)-6-fluoro-3,4-dihydrospiro[chromene-2,1′-cyclobutan]-4-yl]carbamoyl}amino)methyl]phenyl}methanesulfonamide], for which the “hTRPV1 H+ (max % remain)” value in test [1] was 101%. Also, the IC50 in test [2] was found to be 23100 nM.

Turning to `CC1(C)C[C@H](NC(=O)NCc2ccc(NS(C)(=O)=O)c(F)c2)c2cc(F)ccc2O1` [Example 34, N-{2-fluoro-4-[({[(45)-6-fluoro-2,2-dimethyl-3,4-dihydro-2H-chromen-4-yl]carbamoyl}amino)methyl]phenyl}methanesulfonamide], the “hTRPV1 H+ (max % remain)” value in test [1] stood at 86%. The IC50 in test [2] is 28700 nM.

Take `C[C@@]1(C(F)(F)F)C[C@@H](NC(=O)NCc2ccc(NS(C)(=O)=O)c(F)c2)c2ccccc2O1` [Example 35, N-{2-fluoro-4-[({[(2S,4R)-2-methyl-2-(trifluoromethyl)-3,4-dihydro-2H-chromen-4-yl]carbamoyl}amino)methyl]phenyl}methanesulfonamide]: the remaining activity at 37.5 µM in test [1] worked out at 25%. Besides, in test [2], the IC50 amounted to 2440 nM.

With `C[C@]1(C(F)(F)F)C[C@@H](NC(=O)NCc2ccc(NS(C)(=O)=O)c(F)c2)c2ccccc2O1` [Example 36, N-{2-fluoro-4-[({[(2R,4R)-2-methyl-2-(trifluoromethyl)-3,4-dihydro-2H-chromen-4-yl]carbamoyl}amino)methyl]phenyl}methanesulfonamide], the remaining activity at 37.5 µM in test [1] was determined as 58%. Also, the IC50 in test [2] was 587 nM.

`C[C@@]1(CF)C[C@@H](NC(=O)NCc2ccc(NS(C)(=O)=O)c(F)c2)c2ccc(C(F)(F)F)cc2O1` [Example 37, N-{2-fluoro-4-[({[(2S,4R)-2-(fluoromethyl)-2-methyl-7-(trifluoromethyl)-3,4-dihydro-2H-chromen-4-yl]carbamoyl}amino)methyl]phenyl}methanesulfonamide]: in test [1], the remaining activity at 37.5 µM came to 64%. Besides, in test [2], the IC50 amounted to 256 nM.

On to `C[C@]1(CF)C[C@@H](NC(=O)NCc2ccc(NS(C)(=O)=O)c(F)c2)c2ccc(C(F)(F)F)cc2O1` [Example 38, N-{2-fluoro-4-[({[(2R,4R)-2-(fluoromethyl)-2-methyl-7-(trifluoromethyl)-3,4-dihydro-2H-chromen-4-yl]carbamoyl}amino)methyl]phenyl}methanesulfonamide], for which the remaining activity at 37.5 µM in test [1] was 63%. Further, the IC50 in test [2] was found to be 345 nM.

Consider `C[C@@]1(CF)C[C@@H](NC(=O)NCc2ccc(NS(C)(=O)=O)c(F)c2)c2ccc(Cl)cc2O1` [Example 39, N-{4-[({[(2S,4R)-7-chloro-2-(fluoromethyl)-2-methyl-3,4-dihydro-2H-chromen-4-yl]carbamoyl}amino)methyl]-2-fluorophenyl}methanesulfonamide], for which the remaining activity at 37.5 µM in test [1] was found to be 41%. The IC50 in test [2] came out at 615 nM.

For `C[C@@]1(C(F)F)C[C@@H](NC(=O)NCc2ccc(NS(C)(=O)=O)c(F)c2)c2ccccc2O1` [Example 40, N-{4-[({[(2S,4R)-2-(difluoromethyl)-2-methyl-3,4-dihydro-2H-chromen-4-yl]carbamoyl}amino)methyl]-2-fluorophenyl}methanesulfonamide], the remaining activity at 37.5 µM in test [1] was found to be 64%. In addition, the IC50 in test [2] amounted to 10100 nM.

Consider `C[C@]1(C(F)F)C[C@@H](NC(=O)NCc2ccc(NS(C)(=O)=O)c(F)c2)c2ccccc2O1` [Example 41, N-{4-[({[(2R,4R)-2-(difluoromethyl)-2-methyl-3,4-dihydro-2H-chromen-4-yl]carbamoyl}amino)methyl]-2-fluorophenyl}methanesulfonamide], for which, in test [1], the remaining activity at 37.5 µM amounted to 71%. In addition, in test [2], the half-maximal inhibitory concentration (IC50) stood at 5280 nM.

On to `CC1(C)C[C@@H](NC(=O)NCc2ccc(NS(C)(=O)=O)c(F)c2)c2ccc(C(F)(F)F)nc2O1` [Example 42, N-{4-[({[(4R)-2,2-dimethyl-7-(trifluoromethyl)-3,4-dihydro-2H-pyrano[2,3-b]pyridin-4-yl]carbamoyl}amino)methyl]-2-fluorophenyl}methanesulfonamide], for which, in test [1], the remaining activity at 37.5 µM turned out to be 82%. For the same molecule, the IC50 in test [2] was found to be 32800 nM.

With `CS(=O)(=O)Nc1ccc(CNC(=O)N[C@@H]2CC(CF)(CF)Oc3cc(F)ccc32)cc1F` [Example 43, N-{2-fluoro-4-[({[(4R)-7-fluoro-2,2-bis(fluoromethyl)-3,4-dihydro-2H-chromen-4-yl]carbamoyl}amino)methyl]phenyl}methanesulfonamide], in test [1], the remaining activity at 37.5 µM is 43%. For the same molecule, the IC50 in test [2] turned out to be 6410 nM.

On to `CS(=O)(=O)Nc1ccc(CNC(=O)NC2CC3(CCCC3)Oc3ccccc32)cc1F` (centres unmarked) [Example 44, N-(4-{[(3,4-dihydrospiro[chromene-2,1′-cyclopentan]-4-ylcarbamoyl)amino]methyl}-2-fluorophenyl)methanesulfonamide], for which, in test [1], the remaining activity at 37.5 µM was found to be 42%. Besides, the IC50 in test [2] worked out at 1280 nM.

By IC50 is commonly meant the point on the concentration scale where inhibition reaches its midpoint.
